The supplement of paper PMC10307832

Experiments:
Test in all cases: relative viability (nuclei count vs DMSO), 5 days (fraction); higher = more cells survive
NCI-H838 = system: NCI-H838
Method in brief: (§1)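 Relative viability is defined as nuclei in treated wells over nuclei in vehicle wells. Duplicate plates were run and medians reported. Lung cancer cell lines in 1536-well plates were dosed by pin tool one day after seeding, with one drug or with a fixed anchor-drug dose plus five library-drug doses (not always all listed) in √10 steps, and nuclei were counted after 5 days.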

UMC-11 = system: UMC-11
Method in brief: as §1

NCI-H1734 = system: NCI-H1734
Method in brief: as §1

HARA = system: HARA
Method in brief: as §1

NCI-H1993 = system: NCI-H1993
Method in brief: as §1

NCI-H1755 = system: NCI-H1755
Method in brief: as §1

COR-L23 = system: COR-L23
Method in brief: as §1

NCI-H1395 = system: NCI-H1395
Method in brief: as §1

NCI-H2228 = system: NCI-H2228
Method in brief: as §1

NCI-H2347 = system: NCI-H2347
Method in brief: as §1

NCI-H2009 = system: NCI-H2009
Method in brief: as §1

NCI-H2342 = system: NCI-H2342
Method in brief: as §1

NCI-H358 = system: NCI-H358
Method in brief: as §1

EKVX = system: EKVX
Method in brief: as §1

HCC-15 = system: HCC-15
Method in brief: as §1

SK-MES-1 = system: SK-MES-1
Method in brief: as §1

HOP-62 = system: HOP-62
Method in brief: as §1

PC-14 = system: PC-14
Method in brief: as §1

COR-L 105 = system: COR-L 105
Method in brief: as §1

NCI-H2170 = system: NCI-H2170
Method in brief: as §1

NCI-H1793 = system: NCI-H1793
Method in brief: as §1

NCI-H1355 = system: NCI-H1355
Method in brief: as §1

NCI-H647 = system: NCI-H647
Method in brief: as §1

SMILES: CC1(C)CCC(c2ccc(Cl)cc2)=C(CN2CCN(c3ccc(C(=O)NS(=O)(=O)c4ccc(N[C@H](CCN5CCOCC5)CSc5ccccc5)c(S(=O)(=O)C(F)(F)F)c4)cc3)CC2)C1 [Navitoclax] + COc1cc2c(Oc3ccc(NC(=O)C4(C(=O)Nc5ccc(F)cc5)CC4)cc3F)ccnc2cc1OCCCN1CCOCC1 [Foretinib] (partner 0.25 µM)
- relative viability (NCI-H838; first compound 0.005 µM): 0.976
- relative viability (NCI-H838; first compound 0.01581 µM): 1.09
- relative viability (NCI-H838; first compound 0.05 µM): 1.19
- relative viability (NCI-H838; first compound 0.1581 µM): 1.01
- relative viability (NCI-H838; first compound 0.5 µM): 1.03
- relative viability (UMC-11; first compound 0.005 µM): 0.976
- relative viability (UMC-11; first compound 0.01581 µM): 1.14
- relative viability (UMC-11; first compound 0.05 µM): 1.18
- relative viability (UMC-11; first compound 0.1581 µM): 0.937
- relative viability (UMC-11; first compound 0.5 µM): 0.66
- relative viability (NCI-H1734; first compound 0.005 µM): 0.887
- relative viability (NCI-H1734; first compound 0.01581 µM): 0.941
- relative viability (NCI-H1734; first compound 0.1581 µM): 0.831
- relative viability (NCI-H1734; first compound 0.5 µM): 0.906
- relative viability (HARA; first compound 0.005 µM): 0.923
- relative viability (HARA; first compound 0.01581 µM): 1.05
- relative viability (HARA; first compound 0.1581 µM): 0.877
- relative viability (HARA; first compound 0.5 µM): 0.863
- relative viability (NCI-H1993; first compound 0.005 µM): 0.854
- relative viability (NCI-H1993; first compound 0.01581 µM): 0.938
- relative viability (NCI-H1993; first compound 0.05 µM): 0.687
- relative viability (NCI-H1993; first compound 0.1581 µM): 0.839
- relative viability (NCI-H1993; first compound 0.5 µM): 0.862
- relative viability (NCI-H1755; first compound 0.005 µM): 0.873
- relative viability (NCI-H1755; first compound 0.01581 µM): 1.01
- relative viability (NCI-H1755; first compound 0.05 µM): 0.735
- relative viability (NCI-H1755; first compound 0.1581 µM): 0.901
- relative viability (NCI-H1755; first compound 0.5 µM): 0.855
- relative viability (COR-L23; first compound 0.005 µM): 0.957
- relative viability (COR-L23; first compound 0.01581 µM): 1.13
- relative viability (COR-L23; first compound 0.05 µM): 1.02
- relative viability (COR-L23; first compound 0.1581 µM): 0.938
- relative viability (COR-L23; first compound 0.5 µM): 0.947
- relative viability (NCI-H1395; first compound 0.005 µM): 1.15
- relative viability (NCI-H1395; first compound 0.01581 µM): 1.19
- relative viability (NCI-H1395; first compound 0.05 µM): 0.865
- relative viability (NCI-H1395; first compound 0.1581 µM): 0.986
- relative viability (NCI-H1395; first compound 0.5 µM): 1.12
- relative viability (NCI-H2228; first compound 0.005 µM): 0.727
- relative viability (NCI-H2228; first compound 0.01581 µM): 1.04
- relative viability (NCI-H2228; first compound 0.1581 µM): 1.01
- relative viability (NCI-H2228; first compound 0.5 µM): 0.85
- relative viability (NCI-H2347; first compound 0.005 µM): 1.42
- relative viability (NCI-H2347; first compound 0.05 µM): 0.652
- relative viability (NCI-H2347; first compound 0.1581 µM): 0.665
- relative viability (NCI-H2347; first compound 0.5 µM): 0.913
- relative viability (NCI-H2009; first compound 0.005 µM): 1.22
- relative viability (NCI-H2009; first compound 0.01581 µM): 1.29
- relative viability (NCI-H2009; first compound 0.05 µM): 1.26
- relative viability (NCI-H2009; first compound 0.1581 µM): 1.26
- relative viability (NCI-H2009; first compound 0.5 µM): 1.27
- relative viability (NCI-H2342; first compound 0.005 µM): 1.19
- relative viability (NCI-H2342; first compound 0.01581 µM): 1.22
- relative viability (NCI-H2342; first compound 0.05 µM): 0.871
- relative viability (NCI-H2342; first compound 0.1581 µM): 1.1
- relative viability (NCI-H2342; first compound 0.5 µM): 1.16
- relative viability (NCI-H358; first compound 0.005 µM): 0.743
- relative viability (NCI-H358; first compound 0.01581 µM): 0.946
- relative viability (NCI-H358; first compound 0.05 µM): 0.613
- relative viability (NCI-H358; first compound 0.1581 µM): 0.645
- relative viability (NCI-H358; first compound 0.5 µM): 0.728
- relative viability (EKVX; first compound 0.005 µM): 1.02
- relative viability (EKVX; first compound 0.01581 µM): 1.01
- relative viability (EKVX; first compound 0.05 µM): 0.544
- relative viability (EKVX; first compound 0.1581 µM): 0.8
- relative viability (EKVX; first compound 0.5 µM): 0.629
- relative viability (HCC-15; first compound 0.005 µM): 1.01
- relative viability (HCC-15; first compound 0.01581 µM): 1.05
- relative viability (HCC-15; first compound 0.05 µM): 0.977
- relative viability (HCC-15; first compound 0.1581 µM): 0.982
- relative viability (HCC-15; first compound 0.5 µM): 0.918
- relative viability (SK-MES-1; first compound 0.005 µM): 0.817
- relative viability (SK-MES-1; first compound 0.01581 µM): 1.09
- relative viability (SK-MES-1; first compound 0.05 µM): 0.916
- relative viability (SK-MES-1; first compound 0.1581 µM): 0.895
- relative viability (SK-MES-1; first compound 0.5 µM): 1.04
- relative viability (HOP-62; first compound 0.005 µM): 1.07
- relative viability (HOP-62; first compound 0.01581 µM): 1.15
- relative viability (HOP-62; first compound 0.05 µM): 1.19
- relative viability (HOP-62; first compound 0.1581 µM): 1.02
- relative viability (HOP-62; first compound 0.5 µM): 1.02
- relative viability (PC-14; first compound 0.005 µM): 0.898
- relative viability (PC-14; first compound 0.01581 µM): 0.981
- relative viability (PC-14; first compound 0.05 µM): 1.27
- relative viability (PC-14; first compound 0.1581 µM): 0.941
- relative viability (PC-14; first compound 0.5 µM): 0.838
- relative viability (COR-L 105; first compound 0.005 µM): 1.17
- relative viability (COR-L 105; first compound 0.01581 µM): 1.46
- relative viability (COR-L 105; first compound 0.05 µM): 1.31
- relative viability (COR-L 105; first compound 0.1581 µM): 0.865
- relative viability (COR-L 105; first compound 0.5 µM): 0.979
- relative viability (NCI-H2170; first compound 0.005 µM): 0.969
- relative viability (NCI-H2170; first compound 0.01581 µM): 1.02
- relative viability (NCI-H2170; first compound 0.05 µM): 1.08
- relative viability (NCI-H2170; first compound 0.1581 µM): 1.07
- relative viability (NCI-H2170; first compound 0.5 µM): 0.955
- relative viability (NCI-H1793; first compound 0.005 µM): 0.616
- relative viability (NCI-H1793; first compound 0.01581 µM): 0.711
- relative viability (NCI-H1793; first compound 0.1581 µM): 0.608
- relative viability (NCI-H1793; first compound 0.5 µM): 0.622
- relative viability (NCI-H1355; first compound 0.005 µM): 0.993
- relative viability (NCI-H1355; first compound 0.01581 µM): 0.951
- relative viability (NCI-H1355; first compound 0.05 µM): 0.939
- relative viability (NCI-H1355; first compound 0.1581 µM): 0.941
- relative viability (NCI-H1355; first compound 0.5 µM): 0.965
- relative viability (NCI-H647; first compound 0.005 µM): 1.22
- relative viability (NCI-H647; first compound 0.01581 µM): 1.38
- relative viability (NCI-H647; first compound 0.05 µM): 1.27
- relative viability (NCI-H647; first compound 0.1581 µM): 1.24
- relative viability (NCI-H647; first compound 0.5 µM): 1.27
